Results published in patent US8129403B2, “Chemical compounds” (AstraZeneca AB, priority 2005, dated 2012).

What follows are compounds tested against T1, human Trk A kinase (Homo sapiens, UniProt P04629) (assay: Trk A Assay (Alphascreen kinase assay)). Settings: intracellular domain of HIS-tagged human Trk A, 70 μM ATP, PolyEY-biotin substrate, 20 minutes room temperature; read-out: IC50 (μM), Trk inhibitory activity.
T1 construct: HIS tag; made in house; host or cells: SF9 insect cells
T1 sequence (P04629 442-796): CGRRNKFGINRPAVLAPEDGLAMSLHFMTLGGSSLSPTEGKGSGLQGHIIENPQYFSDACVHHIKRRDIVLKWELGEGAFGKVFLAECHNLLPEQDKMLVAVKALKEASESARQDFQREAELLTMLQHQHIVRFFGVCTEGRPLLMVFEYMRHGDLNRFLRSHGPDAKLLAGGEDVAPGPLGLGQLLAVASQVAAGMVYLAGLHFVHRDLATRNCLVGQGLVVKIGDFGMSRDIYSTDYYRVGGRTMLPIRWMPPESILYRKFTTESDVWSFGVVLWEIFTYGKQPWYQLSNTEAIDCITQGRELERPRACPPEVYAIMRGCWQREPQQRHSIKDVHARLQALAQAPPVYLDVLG
Type: biochemical
Description: Trk A kinase activity was measured for its ability to phosphorylate synthetic tyrosine residues within a generic polypeptide substrate using an Amplified Luminescent Proximity Assay (Alphascreen) technology (PerkinElmer, 549 Albany Street, Boston, Mass.).
To measure Trk A kinase activity, the intracellular domain of a HIS-tagged human Trk A kinase (amino acids 442-796 of Trk A, Swiss-Prot Primary Accession Number P04629) was expressed in SF9 cells and purified using standard nickel column chromatography. After incubation of the kinase with a biotinylated substrate and adenosine triphosphate (ATP) for 20 minutes at room temperature, the kinase reaction was stopped by the addition of 30 mM ethylenediaminetetraacetic acid (EDTA). The reaction was performed in 384 well microtitre plates and the reaction products were detected with the addition of strepavidin coated Donor Beads and phosphotyrosine-specific antibodies coated Acceptor Beads using the EnVision Multilabel Plate Reader after an overnight incubation at room temperature.
In the case of Fc1ccc(CNc2ncc3ncn(-c4cc(C5CC5)[nH]n4)c3n2)cc1 [Example 4, 9-(5-Cyclopropyl-1H-pyrazol-3-yl)-N-(4-fluorobenzyl)-9H-purin-2-amine], the IC50 is reported as 0.02 µM.
Compound Fc1ccc(CNc2ccc3ncn(-c4cc(C5CC5)[nH]n4)c3n2)cc1 [Example 14, N-(4-Fluorobenzyl)-3-(5-cyclopropyl-1H-pyrazol-3-yl)-3H-imidazo[4,5-b]pyridin-5-amine] has an IC50 of 0.022 µM.
Fc1ccc(CNc2ccc3ncn(-c4cc(C5CC5)[nH]n4)c3c2)cc1 [Example 29, N-(4-Fluorobenzyl)-3-(5-cyclopropyl-1H-pyrazol-3-yl)-3H-benzo[d]imidazol-5-amine] gave an IC50 of 0.015 µM.
